# Results taken from patent US8178538B2, “Pyridazinones” (Hoffmann-La Roche Inc., priority 2008, dated 2012).
# Target: T1, PDE10A2 (Homo sapiens, UniProt Q9Y233)
# T1 construct: residues serine 449 to aspartate 789; His6 (H6) with thrombin cleavage site (N, cleaved yes); made in house; host or cells: E. coli BL21(DE3) pLysS
# Assay: PDE10A2 inhibition, Scintillation Proximity Assay (SPA)
# Assay type: biochemical
# Settings: catalytic domain of human PDE10A2 (S449-D789), 0.25 nM enzyme, 50 nM cGMP + 50 nM [3H]-cGMP, 30 minutes at room temperature
# Description: The following tests were carried out in order to determine the activity of the compounds of the present invention. PDE10 activity of the compounds of the present invention is determined using a Scintillation Proximity Assay (SPA)-based method similar to the one previously described (Fawcett, L. et al., Proc Natl Acad Sci USA (2000) 97(7):3702-3707).
# PDE10A1 and PDE10A2 are two splice variants of PDE10A. There are these 2 splice variants known, which differ in the N-terminal part of the protein. The catalytic domains of PDE10A1 and PDE10A2 are identical. The assay for PDE10A2 described below is therefore also representative for PDE10A1 and also for PDE10A in general.
# The PDE10A2 assay was performed in a two step procedure in 96-well micro titer plates. The reaction mixture of 80 μl contained 20 mM HEPES/10 mM MgCl2/[…] (pH 7.5), 50 nM cGMP (Sigma) and 50 nM [^3H]-cGMP (GE Healthcare), 0.25 nM PDE10A2 with or without a specific test compound. A range of concentrations of the potential inhibitor was used to generate data for calculating the concentration of inhibitor resulting in 50% of the effect (e.g. IC50, the concentration of the competitor inhibiting PDE10A2 activity 50%). Non-specific activity was tested without the enzyme. The reaction was initiated by addition of the substrate solution (cGMP and [^3H]-cGMP) and allowed to progress for 30 minutes at room temperature. The reaction was terminated by transferring 50 μl of the reaction mixture into an OptiPlate (Perkin Elmer) containing 25 μl of YSi-SPA scintillation beads (GE Healthcare) in 18 mM zinc sulphate solution (stop reagent). After 1 h under shaking, the plate was centrifuged one minute at 1000 rpm to allow beads to settle. Afterwards, radioactive counts were measured on a Perkin Elmer TopCount Scintillation plate reader.
# The catalytic domain of human PDE10A2, residues serine 449 to aspartate 789, was amplified by PCR using cDNA (Origene) and the oligonucleotides 5′-GGGGACAAGTTT […]-3′ (SEQ ID NO. 1) (with AttB1 recombination site in bold and thrombin protease cleavage site in italics) and 5′-[…] GCTG-3′ (SEQ ID NO. 2) (with AttB2 recombination site in bold) which conferred Gateway recombination sites. The PCR product was used in a BP recombination reaction with pDONR221 to generate pENTR Thm-PDE10A2(S449-D789) which was DNA sequence verified and then used in an LR recombination reaction with a Gateway modified version of pET11a. The resulting expression vector, placT7.2H6-(gw1)-Thm-PDE10A2(S449-D789) was DNA sequence confirmed and transformed into E. coli strain BL21(DE3) pLysS and recombinant protein was produced in TB medium at 20° C. by induction to a final IPTG concentration of 0.5 mM at an optical density of 1.0 at 600 nm for 20 hours. About 30% of the protein was in the soluble fraction of the cell homogenate. The protein was purified using sequential chromatography on Ni-NTA and HiTrapQ/HiTrapS. After thrombin digest at room temperature a HiTrapChelating/HiTrap Benzamindin chromatography removed impurities, uncleaved protein and thrombin. Final purification of PDE10A2(S449-D789) was performed on a Superdex 75 size exclusion chromatography equilibrated with 25 mM HEPES pH 8.4, 0.15 M NaCl. The yield of pure protein was 2 mg/liter of culture volume is relatively low. The purity of the protein was >95%, monomeric and monodisperse as shown by SDS-PAGE, HPLC and analytical ultracentrifugation.
# T1 sequence (Q9Y233 715-1055): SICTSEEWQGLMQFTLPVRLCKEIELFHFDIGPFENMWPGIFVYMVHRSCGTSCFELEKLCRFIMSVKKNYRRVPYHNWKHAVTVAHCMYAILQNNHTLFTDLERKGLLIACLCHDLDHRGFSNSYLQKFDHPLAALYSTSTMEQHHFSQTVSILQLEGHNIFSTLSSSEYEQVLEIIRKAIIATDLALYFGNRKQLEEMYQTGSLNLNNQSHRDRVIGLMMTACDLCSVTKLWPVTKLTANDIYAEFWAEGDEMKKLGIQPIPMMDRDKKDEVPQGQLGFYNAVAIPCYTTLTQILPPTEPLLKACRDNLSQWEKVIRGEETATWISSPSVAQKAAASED
row,IC50 [nM],Structure (SMILES)
1,55,"CS(=O)(=O)c1cccc(-n2ccc(=O)c(-c3ccnn3-c3cccc(C#N)c3)n2)c1 [Example 94, 3-{5-[1-(3-Methanesulfonyl-phenyl)-4-oxo-1,4-dihydro-pyridazin-3-yl]-pyrazol-1-yl}-benzonitrile]"
2,1200,"COc1ccc(-c2csc(-n3nccc3-c3nn(-c4cccc(S(C)(=O)=O)c4)ccc3=O)n2)c(F)c1 [Example 95, 3-{2-[4-(2-Fluoro-4-methoxy-phenyl)-thiazol-2-yl]-2H-pyrazol-3-yl}-1-(3-methanesulfonyl-phenyl)-1H-pyridazin-4-one]"
3,222,"O=c1ccn(-c2cccc(OC(F)F)c2)nc1-c1ccnn1-c1cccc(F)c1 [Example 98, 1-(3-Difluoromethoxy-phenyl)-3-[2-(3-fluoro-phenyl)-2H-pyrazol-3-yl]-1H-pyridazin-4-one]"
4,105,"O=c1ccn(-c2ccc(OC(F)F)cc2)nc1-c1ccnn1-c1cccc(F)c1 [Example 100, 1-(4-Difluoromethoxy-phenyl)-3-[2-(3-fluoro-phenyl)-2H-pyrazol-3-yl]-1H-pyridazin-4-one]"
5,37,"O=c1ccn(-c2ccc3c(c2)OC(F)(F)O3)nc1-c1ccnn1-c1ccc2c(c1)OCCO2 [Example 101, 1-(2,2-Difluoro-benzo[1,3]dioxol-5-yl)-3-[2-(2,3-dihydro-benzo[1,4]dioxin-6-yl)-2H-pyrazol-3-yl]-1H-pyridazin-4-one]"
6,54,"CS(=O)(=O)c1cccc(-n2ccc(=O)c(-c3ccnn3-c3ccc(F)cc3F)n2)c1 [Example 105, 3-[2-(2,4-Difluoro-phenyl)-2H-pyrazol-3-yl]-1-(3-methanesulfonyl-phenyl)-1H-pyridazin-4-one]"
7,40,"CS(=O)(=O)c1cccc(-n2ccc(=O)c(-c3ccnn3-c3cccc4c3OCO4)n2)c1 [Example 106, 3-(2-Benzo[1,3]dioxol-4-yl-2H-pyrazol-3-yl)-1-(3-methanesulfonyl-phenyl)-1H-pyridazin-4-one]"
8,72,"O=c1ccn(-c2cccc(F)c2)nc1-c1ccnn1-c1ccc2c(c1)OCO2 [Example 109, 3-(2-Benzo[1,3]dioxol-5-yl-2H-pyrazol-3-yl)-1-(3-fluoro-phenyl)-1H-pyridazin-4-one]"
9,82,"N#Cc1cccc(-n2nccc2-c2nn(-c3cccc4c3OCO4)ccc2=O)c1 [Example 114, 3-[5-(1-Benzo[1,3]dioxol-4-yl-4-oxo-1,4-dihydro-pyridazin-3-yl)-pyrazol-1-yl]-benzonitrile]"
10,33,"O=c1ccn(-c2cccc(OC(F)F)c2)nc1-c1ccnn1-c1cc(F)ccc1F [Example 116, 1-(3-Difluoromethoxy-phenyl)-3-[2-(2,5-difluoro-phenyl)-2H-pyrazol-3-yl]-1H-pyridazin-4-one]"
11,28,"CS(=O)(=O)c1cccc(-n2ccc(=O)c(-c3ccnn3-c3cccc(OC(F)(F)F)c3)n2)c1 [Example 122, 1-(3-Methanesulfonyl-phenyl)-3-[2-(3-trifluoromethoxy-phenyl)-2H-pyrazol-3-yl]-1H-pyridazin-4-one]"
12,57,"Cc1cc(-n2nccc2-c2nn(-c3cccc(OC(F)(F)F)c3)ccc2=O)ccn1 [Example 124, 3-[2-(2-Methyl-pyridin-4-yl)-2H-pyrazol-3-yl]-1-(3-trifluoromethoxy-phenyl)-1H-pyridazin-4-one]"
13,80,"N#Cc1cccc(-n2nccc2-c2nn(-c3cccc4c3OC(F)(F)O4)ccc2=O)c1 [Example 129, 3-{5-[1-(2,2-Difluoro-benzo[1,3]dioxol-4-yl)-4-oxo-1,4-dihydro-pyridazin-3-yl]-pyrazol-1-yl}-benzonitrile]"
14,71,"Cc1cc(-n2nccc2-c2nn(-c3cccc(S(=O)(=O)N(C)C)c3)ccc2=O)ccn1 [Example 133, N,N-Dimethyl-3-{3-[2-(2-methyl-pyridin-4-yl)-2H-pyrazol-3-yl]-4-oxo-4H-pyridazin-1-yl}-benzenesulfonamide]"
15,37,"O=c1ccn(-c2ccc(OC(F)(F)F)cc2)nc1-c1ccnn1-c1ccc(F)cc1 [Example 138, 3-[2-(4-Fluoro-phenyl)-2H-pyrazol-3-yl]-1-(4-trifluoromethoxy-phenyl)-1H-pyridazin-4-one]"
16,72,"O=c1ccn(-c2ccc(OC(F)(F)F)cc2)nc1-c1ccnn1-c1cccc2c1OC(F)(F)O2 [Example 145, 3-[2-(2,2-Difluoro-benzo[1,3]dioxol-4-yl)-2H-pyrazol-3-yl]-1-(4-trifluoromethoxy-phenyl)-1H-pyridazin-4-one]"
17,14,"O=c1ccn(-c2ccc(OC(F)F)cc2)nc1-c1ccnn1-c1ccnc2ccc(F)cc12 [Example 149, 1-(4-Difluoromethoxy-phenyl)-3-[2-(6-fluoro-quinolin-4-yl)-2H-pyrazol-3-yl]-1H-pyridazin-4-one]"
18,5,"O=c1ccn(-c2cccc(OC(F)F)c2)nc1-c1ccnn1-c1ccnc2ccc(F)cc12 [Example 150, 1-(3-Difluoromethoxy-phenyl)-3-[2-(6-fluoro-quinolin-4-yl)-2H-pyrazol-3-yl]-1H-pyridazin-4-one]"
19,67,"CS(=O)(=O)c1ccc(-n2ccc(=O)c(-c3ccnn3-c3ccc(F)cc3)n2)cc1 [Example 153, 3-[2-(4-Fluoro-phenyl)-2H-pyrazol-3-yl]-1-(4-methanesulfonyl-phenyl)-1H-pyridazin-4-one]"
20,92,"CS(=O)(=O)c1ccc(-n2ccc(=O)c(-c3ccnn3-c3cccc(Cl)c3)n2)cc1 [Example 157, 3-[2-(3-Chloro-phenyl)-2H-pyrazol-3-yl]-1-(4-methanesulfonyl-phenyl)-1H-pyridazin-4-one]"
21,155,"O=c1ccn(-c2cccc(OC(F)(F)F)c2)nc1-c1ccnn1-c1ccc2c(c1)OC(F)(F)O2 [Example 162, 3-[2-(2,2-Difluoro-benzo[1,3]dioxol-5-yl)-2H-pyrazol-3-yl]-1-(3-trifluoromethoxy-phenyl)-1H-pyridazin-4-one]"
22,51,"O=c1ccn(-c2ccc(OC(F)F)cc2)nc1-c1ccnn1-c1cccc(OC(F)(F)F)c1 [Example 165, 1-(4-Difluoromethoxy-phenyl)-3-[2-(3-trifluoromethoxy-phenyl)-2H-pyrazol-3-yl]-1H-pyridazin-4-one]"
23,46,"O=c1ccn(-c2cccc(OC(F)F)c2)nc1-c1ccnn1-c1ccccc1F [Example 171, 1-(3-Difluoromethoxy-phenyl)-3-[2-(2-fluoro-phenyl)-2H-pyrazol-3-yl]-1H-pyridazin-4-one]"
24,184,"O=c1ccn(-c2ccc3c(c2)OC(F)(F)O3)nc1-c1ccnn1-c1ccccc1F [Example 174, 1-(2,2-Difluoro-benzo[1,3]dioxol-5-yl)-3-[2-(2-fluoro-phenyl)-2H-pyrazol-3-yl]-1H-pyridazin-4-one]"
25,27,"Cc1cc(-n2nccc2-c2nn(-c3cccc(OC(F)(F)F)c3)ccc2=O)c2cc(F)ccc2n1 [Example 177, 3-[2-(6-Fluoro-2-methyl-quinolin-4-yl)-2H-pyrazol-3-yl]-1-(3-trifluoromethoxy-phenyl)-1H-pyridazin-4-one]"
26,47,"O=c1ccn(-c2ccccc2)nc1-c1ccnn1-c1ccccc1F [Example 183, 3-[2-(2-Fluoro-phenyl)-2H-pyrazol-3-yl]-1-phenyl-1H-pyridazin-4-one]"
27,2,"O=c1ccn(-c2ccc(OC(F)(F)F)cc2)nc1-c1ccnn1-c1ccnc2ccccc12 [Example 186, 3-(2-Quinolin-4-yl-2H-pyrazol-3-yl)-1-(4-trifluoromethoxy-phenyl)-1H-pyridazin-4-one]"
